Assay [1] has as its system isolated pancreatic islets of ^EndomKir6.2^V108E mice. Kind of assay: Static incubation assay of GSIS with diazoxide. The assay is classed as cell-based, mouse. The following applies: 100 µM diazoxide; for Amount of insulin (secreted/total), Mean: 0 µM SpTx1, mean of 6 mice. The method, then: (§1) Pancreatic islets were isolated as previously described ([Doliba et al., 2017]; [Li et al., 2009]). For each experiment, one to four adult mice (8–12 weeks of age) were euthanized by exposing them to an overdose of isoflurane through inhalation and a subsequent cervical dislocation. Following a perfusion through the common bile duct with a Hank’s balanced salt solution (HBSS; GIBCO, 14175) containing collagenase XI (1–2 mg/ml, Millipore-Sigma, C7657) and 1 mM CaCl2, the pancreas was dissected and digested at 37°C for 5 or 15 min. After the digestion, the collagenase in the pancreas homogenate was removed through several washes with HBSS containing 0.3% (wt/vol) bovine serum albumin, and dissociated islets were then hand-picked into a recovery media RPMI1640 (GIBCO, 21870) with the following supplements: 10% fetal bovine serum, 2 mM GlutaMAX, 1 mM sodium pyruvate, penicillin–streptomycin, and 10 mM HEPES titrated to pH 7.4 with NaOH. For the perifusion assay, the digested pancreases samples were subject to a Ficoll gradient purification, and the islets in the enriched fraction were washed with the recovery solution before handpicking islets. During this process, the samples from four mice were pooled to ensure a sufficient number of islets were used to perform assays under compared conditions with the same population in each independent round of experiment. The handpicked islets were placed in 5% CO2 incubator at 37°C to rest overnight prior to the static incubation assay or 2 days prior to the perifusion assay.
For insulin secretion in each independent static incubation assays, pancreatic islets from one mouse (8–12 weeks of age) were used as follows. […] Washed islets were equilibrated in the final wash step for 1 hr at 5% CO2 and 37°C. Using a previous study as reference ([Remedi et al., 2009]) and on the basis of the amount of insulin secretion and the sensitivity of insulin assay, we chose to use 5–10 islets in each assay. […]

For assay [2], the system named is β cells in isolated pancreatic islets from wild-type mice. The assay can be described thus: Membrane potential (Vm), perforated whole-cell patch clamp. In kind it is cell-based, mouse. The method, then: (§2) Electrophysiological membrane potential (Vm) measurements from individual cells in isolated but intact islets cultured on glass coverslips were performed using the perforated whole-cell patch-clamp method as described ([Yang et al., 2021]). Wax-coated electrodes (G85150T, Warner) were back filled with the intracellular solution containing (in mM): 76 K2SO4, 10 KCl, 10 NaCl, 6 MgCl2, 30 mannitol, 30 HEPES, where pH was titrated to 7.2 at 35°C with N-methyl-d-glucamine (NMG). The tip of the pipette was filled with this solution and the remainder was back filled with the same solution plus β-escin (6 or 8 µM). The free Mg^2+ concentration of this solution, taking the divalent cation-chelating action of SO4^2− into consideration, is estimated to be about 2 mM. The extracellular solution contained (in mM): 135 NaCl, 4 KCl, 2 CaCl2, 2 MgCl2, 10 HEPES, where pH was titrated to 7.4 at 35°C with NMG. Glucose was added to this solution as required and the osmolarity was adjusted to ~300 mOsm with mannitol. All salts were from Millipore-Sigma. Using the solutions described above, the initial input resistance of the electrode was typically 4–8 MΩ. The electrophysiological recordings were performed under a continuous perfusion condition, 0.3–0.4 ml/min (Instech), at ~35°C (TC-124A and TC-344B Warner). Islets were equilibrated in the recording chamber for 10–15 min before measurements were made. Adequate whole-cell access was achieved typically within 5–10 min.
(§3) The output of the patch-clamp amplifier (Axopatch 200B, Molecular Devices) was digitized at 2 kHz and stored for later analysis using Igor Pro (v8 or v9, Wavemetrics). The liquid junction potential has been subtracted from the results. To estimate the average Vm values under different conditions, the Vm traces were digitally Gaussian filtered at 0.1 Hz and the filtered data points in the last 50 s of a segment of interest were averaged. The filtered traces are superimposed on the illustrative original traces in the figures where appropriate. The variations in data values reflected both biological variability and technical errors (Figures 2D–F–6D–F). No data, which were successfully recorded over sufficient durations that allowed for adequate examination the membrane potential under the various specified conditions, were excluded.
On the technique in general: Patch clamp records ionic current or voltage across a cell membrane.

Assay [3] concerns β cells in isolated pancreatic islets from ^EndomKir6.2^V108E mice. The assay is described as above. The following applies: glibenclamide; nominal glucose-free condition. In kind it is cell-based, mouse. The method, then: as §2, §3
The subject of the next assay is wild-type mice. The assay can be described thus: Blood glucose monitoring of overnight-fasted mice. As to conditions: glibenclamide 40 mg/kg body weight, single intraperitoneal application; end of 2-hr observation period. The assay is classed as in vivo, mouse. The method, then:
We evaluated the blood glucose levels of tested mice (8–12 weeks of age) using a digital glucometer (Clarity Diagnostics, BG1000). Induced diabetic mice were tested daily starting from the day after the final administration of tamoxifen until their blood glucose levels reached above 600 mg/dl. Following overnight (16 hr) fasting, blood glucose monitoring and plasma collection were then performed using specified mouse lines at designated time points over a 2-hr observation period in the next morning. […] At each given time point, the glucose level of a blood drop obtained from the cut tail tip was measured twice using a glucometer. For any case where the level was above 600 mg/dl, the blood sample was diluted by an equal volume of the phosphate-buffer solution titrated to pH 7.3 before the glucose level was remeasured for two times. Additionally, four to five drops (~12 μl) of tail vein blood were collected at individual specified time points into a tube containing K2EDTA (1.5 mg/ml blood) and centrifuged at 2000 × g for 5 min at 4°C. 5 μl of the resulting plasma was frozen in liquid nitrogen, stored at −20°C, and assayed using a colorimetric insulin-detecting ELISA kit (CrystalChem, 90080) within a week. Mice were grouped according to genotypes. Using a previous study as reference ([Remedi et al., 2009]), we determined the number of mice for individual groups. […]

The test system of assay [4] is ^Rosa26mKir6.2^NDM-V108E mice. The assay can be described thus: Blood glucose monitoring of overnight-fasted diabetic mice. In kind it is in vivo, mouse. The following applies: glibenclamide 40 mg/kg, single bolus. An excerpt:
(§4) In ^Rosa26mKir6.2^NDM and ^Rosa26mKir6.2^NDM-V108E mice, the expression of mutant Kir6.2 activity occurred in the pancreas upon the excision of the Neo/WSS cassette by the tamoxifen-dependent Cre recombinase ([Remedi et al., 2009]). Exposure to tamoxifen permitted the translocation of Cre recombinase from the cytoplasm to the nucleus in order to perform the excision between loxP sites within the targeted Rosa26 locus. To induce the expression of mutant Kir6.2 activity and consequently the diabetic phenotype in these mutant mice (8–12 weeks of age), corn oil containing tamoxifen (75 mg/kg body weight; prepared as described below) was injected intraperitoneally for five consecutive days. Injection sites were sealed with a tissue adhesive (3M Vetbond) to prevent leakage of the injected liquid.
(§5) We evaluated the blood glucose levels of tested mice (8–12 weeks of age) using a digital glucometer (Clarity Diagnostics, BG1000). Induced diabetic mice were tested daily starting from the day after the final administration of tamoxifen until their blood glucose levels reached above 600 mg/dl. […] At each given time point, the glucose level of a blood drop obtained from the cut tail tip was measured twice using a glucometer. […]

Assay [5] relates to ^Rosa26mKir6.2^NDM-V108E mice. Kind of assay: Plasma insulin assay (ELISA). In kind it is in vivo, mouse. The following applies: glibenclamide 40 mg/kg, single bolus.
Text: as §4, §5
(In an ELISA, binding on a coated surface is turned into a signal by an enzyme label.)

Assay [6] relates to isolated pancreatic islets of ^EndomKir6.2^V108E mice. The assay is classed as cell-based, mouse. The method, then: as §1
For each perifusion experiment ([Doliba et al., 2017]), pancreatic islets from four mice (8–12 weeks of age) were used in the following manner. […] At the end of each experiment, the islets were recovered and placed in acidified ethanol to extract total insulin content as described above. Insulin in the samples was assayed using an insulin-specific radioimmunoassay kit (RI-13K, Millipore). For each condition, the study was performed three to six times. […] No experiments were excluded.

Entries after “also recorded” stand apart in the source; their conditions may differ. Where two headings read alike, the source gives them in different places.

For `CC1=NS(=O)(=O)c2cc(Cl)ccc2N1` [diazoxide], in assay [1] (16.7 mM glucose), the “effect on insulin secretion” value is listed as “lowered the insulin secretion in 16.7 mM glucose to the baseline level” and the “Amount of insulin (secreted/total), Mean” value is listed as 0.2327. The “Amount of insulin (secreted/total), Mean” value in assay [1] (3 mM glucose) worked out at 0.2568.
`COc1ccc(Cl)cc1C(=O)NCCc1ccc(S(=O)(=O)NC(=O)NC2CCCCC2)cc1` [glibenclamide]: the Vm in assay [2] (0.2 uM Glibenclamide in 5 mM Glucose, islet 1) was -0.05335 V; in assay [2] (0.2 uM Glibenclamide in 5 mM Glucose, islet 2) it was -0.03306 V; in assay [2] (0.2 uM Glibenclamide in 5 mM Glucose, islet 3), -0.0403 V; in assay [2] (0.4 uM Glibenclamide in 0 mM Glucose, islet 1), -0.05043 V; in assay [2] (0.4 uM Glibenclamide in 0 mM Glucose, islet 2) it was -0.02061 V; in assay [2] (0.4 uM Glibenclamide in 0 mM Glucose, islet 3), -0.04501 V. Further, the Vm is -0.03684 V in assay [2] (0.4 uM Glibenclamide in 0 mM Glucose, islet 4); -0.05294 V in assay [2] (0.4 uM Glibenclamide in 0 mM Glucose, islet 5); -0.05777 V in assay [2] (0.4 uM Glibenclamide in 0 mM Glucose, islet 6); -0.04669 V in assay [2] (0.4 uM Glibenclamide in 8 mM Glucose, islet 1); -0.04799 V in assay [2] (0.4 uM Glibenclamide in 8 mM Glucose, islet 2); -0.04272 V in assay [2] (0.4 uM Glibenclamide in 8 mM Glucose, islet 3). The Vm is recorded as -0.05311 V in assay [2] (0.4 uM Glibenclamide in 8 mM Glucose, islet 5) and -0.0321 V in assay [2] (0.4 uM Glibenclamide in 8 mM Glucose, islet 6). In addition, the “effect on Vm” value was “dramatically depolarized Vm and triggered a train of action potentials” in assay [2] (glibenclamide 0.4 µM, glucose 0 mM); “elicited action potentials” in assay [3]. For the same compound, in the assay with wild-type mice, the “effect on blood glucose level” value is “lowered the blood glucose level of wild-type mice by half”. In assay [4], the “effect on elevated blood glucose level” value is listed as “neither markedly lowered the elevated blood glucose level”. Also, the “effect on plasma insulin” value in assay [5] is on record as “nor caused a rise of insulin in the plasma”. For the same compound, the “insulin secretion after removal of inhibitor and return to 3 mM glucose” value in assay [6] (1 μM glibenclamide) is recorded as “the elevated insulin secretion largely persisted”. The “effect on insulin secretion” value in assay [6] (1 μM glibenclamide with glucose raised from 3 to 10 mM) is recorded as “yielded insulin secretion much greater than that from elevated glucose alone”; in assay [6] (1 μM glibenclamide, 16.7 mM glucose) it was “caused much greater secretion of insulin than it did in the absence of glibenclamide”. Besides, the “insulin secretion in nonstimulating glucose (primary secretagogue)” value in assay [6] (1 μM glibenclamide, 3 mM glucose, added 10 min before raising glucose) is “triggered sizable secretion of insulin; also recorded: stimulated sizable secretion of insulin”.

For the origin of these results see PMC8880991 (eLife, 2022).
